Measured values: patent US20030138485A1, “Disintegrant” (DAIICHI PHARMACEUTICAL CO., LTD., priority 1998, published 2003)
Converted amounts (≈) assume the structure as drawn.

Tests used:
[1] = Measurement of viscosity of a saturated aqueous solution; format: physicochemical; conditions: B-type viscometer
Experimental: (2) Measurement of Viscosity of a Saturated Aqueous Solution
A saturated aqueous solution of a sample was prepared at 37° C., and the resultant solution was filtered by use of a membrane filter. The viscosity of the solution was measured by use of the resultant filtrate at 37° C. by means of a B-type viscometer.

[2] = physchem; conditions: water
[3] = Increase in weight by moisture absorption; format: physicochemical; conditions: for moisture absorption (in words): 25° C., relative humidity 75%, seven days, Table 2; for increase in weight by moisture absorption: sample stored 25° C., 75% open air, 7 days
Experimental: (7) Increase in Weight by Moisture Absorption
A sample tablet was weighed before and after moisture absorption, and the increase in weight of the tablet by moisture absorption (%) was calculated.
In test Example 2, erythritol and trehalose (in the form of hydrous crystals, products of Hayashibara Shoji Inc.) and xylitol and maltose (in the form of anhydrous crystals, products of Nihon Shokuhin Kako Co., Ltd.) were stored for seven days at a temperature of 25° C. and a relative humidity of 75%. Thereafter, each of these was subjected to measurement of increase in weight by moisture absorption (%). In Reference Example 2, the increases in weight by moisture absorption (%) of cornstarch, low substituted hydroxypropylcellulose, carmellose, carmellose calcium, and carmellose sodium were measured in the same manner as in Test Example 2. These compounds had been dried in a drier at 80° C. for one hour, and then employed as samples.

[4] = general description; cited from earlier work

| Compound | Viscosity (37° C.) [1] | solubility thermodynamic [2] [mg/mL] | moisture absorption (in words) [3] | increase in weight by moisture absorption [3] [%] | hygroscopicity (in words) [4] | solubility in water (in words) [4] | heat of dissolution [4] [cal/g] |
| --- | --- | --- | --- | --- | --- | --- | --- |
| OC[C@@H](O)[C@@H](O[C@@H]1O[C@H](CO)[C@H](O)[C@H](O)[C@H]1O)[C@H](O)[C@@H](O)CO [Hydrogenated lactose, reference compound] | 218 mPa · s |  |  |  |  |  |  |
| OC[C@@H](O)[C@@H](O)[C@H](O)[C@H](O)CO [D-Mannitol, reference compound] | 1.6 mPa · s | 240 (≈ 1320 mM) |  |  |  |  |  |
| OC[C@@H](O)[C@@H](O)[C@H](O)[C@@H](O)CO [D-Sorbitol, reference compound] | 2090 or more mPa · s |  |  |  |  |  |  |
| OC[C@H]1O[C@@H](O[C@H]2[C@H](O)[C@@H](O)C(O)O[C@@H]2CO)[C@H](O)[C@@H](O)[C@H]1O (some centres unmarked) [Lactose, reference compound] | 1.7 mPa · s |  |  |  |  |  |  |
| OC[C@@H](O)[C@@H](O)CO [Erythritol] | 3.5 mPa · s | 450 (≈ 3680 mM) | absorb little moisture | 0.03 | not hygroscopic | easily dissolved in water | -42.9 |
| OC[C@H]1O[C@H](O[C@H]2[C@H](O)[C@@H](O)[C@H](O)O[C@@H]2CO)[C@H](O)[C@@H](O)[C@@H]1O [Maltose] | 38 mPa · s |  | absorb little moisture | 0.06 |  |  |  |

Now from value to compound, other results behind:

| Viscosity (37° C.) [1] | solubility thermodynamic [2] [mg/mL] | moisture absorption (in words) [3] | increase in weight by moisture absorption [3] [%] | Compound | hygroscopicity (in words) [4] | solubility in water (in words) [4] | heat of dissolution [4] [cal/g] |
| --- | --- | --- | --- | --- | --- | --- | --- |
| 1120 mPa · s | 780 (≈ 2280 mM) |  |  | OC[C@H]1O[C@@](CO)(O[C@H]2O[C@H](CO)[C@@H](O)[C@H](O)[C@H]2O)[C@@H](O)[C@@H]1O [Sucrose, reference compound] |  |  |  |
| 30 mPa · s |  |  |  | CC(=O)[O-].[K+] [Potassium acetate] |  |  |  |
| 5.2 mPa · s |  |  |  | CC(=O)[O-].[Na+] [Sodium acetate] |  |  |  |
| 11 mPa · s | 500 (≈ 1460 mM) | absorb little moisture | 0.99 | OC[C@H]1O[C@H](O[C@H]2O[C@H](CO)[C@@H](O)[C@H](O)[C@H]2O)[C@H](O)[C@@H](O)[C@@H]1O [Trehalose] | not hygroscopic | easily dissolved in water |  |
| 37 mPa · s | 740 (≈ 4860 mM) | absorb little moisture | 0.05 | OC[C@@H](O)[C@H](O)[C@@H](O)CO [Xylitol] | slightly hygroscopic | very easily dissolved in water | -35 |
